Measured values: ChEMBL document CHEMBL1131647, “Enzymatic synthesis of a modified phospholipid and its evaluation as a substrate for B. cereus phospholipase C” (Bioorg Med Chem Lett, 1998)

Columns and labels:
[1] = test system: Phospholipase C (Bacillus cereus); test: Compound was evaluated for its […] activity against phospholipase C from Bacillus cereus
[2] = test system: Phospholipase C (Bacillus cereus); test: Critical Micellar Concentration for the compound was calculated for phospholipase C from Bacillus cereus

| CMC [2] [mM] | SMILES | k cat [1] [s⁻¹] |
| --- | --- | --- |
| 9.5 | CCCCCC(=O)OCC(COP(=O)(O)OCCC(C)(C)C)OC(=O)CCCCC (stereo not drawn) | 5.2 |
| – | CCCCCC(=O)OCC(COP(=O)([O-])OCC[N+](C)(C)C)OC(=O)CCCCC (stereo not drawn) | 1000 |
